± gives the expanded uncertainty stated by the source.

The conditions of the series: Liquid; Ebulliometric method (Recirculating still).
Regarding `CCOCC(C)O` (centres undefined) [1-ethoxy-2-propanol], the Normal boiling temperature amounted to 131.89 ± 0.7 °C. Consider `CC(C)OC(C)C` [diisopropyl ether], for which the Normal boiling temperature stood at 68.57 ± 0.7 °C. With `CCCO` [propan-1-ol] the figure was 96.8 ± 0.7 °C; with `CC(C)O` [propan-2-ol], 82.18 ± 0.7 °C.
